Measurements reported in PMC6199744, “Development of Chemical Proteomics for the Folateome and Analysis of the Kinetoplastid Folateome” (ACS Infectious Diseases, 2018).
Read-outs that look alike come from different tables or passages of the source.

Tests used:
Type in all cases: binding
[1] = molecular target: T1, HeLa cell extract proteins (Homo sapiens, UniProt P09972)
T1 construct: endogenous in cells; host or cells: HeLa cell extract
T1 sequence (P09972 1-364): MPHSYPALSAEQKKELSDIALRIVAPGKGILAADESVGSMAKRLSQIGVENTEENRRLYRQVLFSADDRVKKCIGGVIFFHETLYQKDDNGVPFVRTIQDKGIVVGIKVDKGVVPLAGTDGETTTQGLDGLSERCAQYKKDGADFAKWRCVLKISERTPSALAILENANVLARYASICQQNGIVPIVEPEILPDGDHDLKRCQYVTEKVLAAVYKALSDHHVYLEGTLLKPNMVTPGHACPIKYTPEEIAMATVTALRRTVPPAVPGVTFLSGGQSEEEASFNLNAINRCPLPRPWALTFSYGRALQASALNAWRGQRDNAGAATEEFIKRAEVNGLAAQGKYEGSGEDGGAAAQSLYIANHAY

[2] = molecular target: T2, HeLa cell extract proteins (Homo sapiens, UniProt P13798)
T2 construct: endogenous in cells; host or cells: HeLa cell extract
T2 sequence (P13798 1-732): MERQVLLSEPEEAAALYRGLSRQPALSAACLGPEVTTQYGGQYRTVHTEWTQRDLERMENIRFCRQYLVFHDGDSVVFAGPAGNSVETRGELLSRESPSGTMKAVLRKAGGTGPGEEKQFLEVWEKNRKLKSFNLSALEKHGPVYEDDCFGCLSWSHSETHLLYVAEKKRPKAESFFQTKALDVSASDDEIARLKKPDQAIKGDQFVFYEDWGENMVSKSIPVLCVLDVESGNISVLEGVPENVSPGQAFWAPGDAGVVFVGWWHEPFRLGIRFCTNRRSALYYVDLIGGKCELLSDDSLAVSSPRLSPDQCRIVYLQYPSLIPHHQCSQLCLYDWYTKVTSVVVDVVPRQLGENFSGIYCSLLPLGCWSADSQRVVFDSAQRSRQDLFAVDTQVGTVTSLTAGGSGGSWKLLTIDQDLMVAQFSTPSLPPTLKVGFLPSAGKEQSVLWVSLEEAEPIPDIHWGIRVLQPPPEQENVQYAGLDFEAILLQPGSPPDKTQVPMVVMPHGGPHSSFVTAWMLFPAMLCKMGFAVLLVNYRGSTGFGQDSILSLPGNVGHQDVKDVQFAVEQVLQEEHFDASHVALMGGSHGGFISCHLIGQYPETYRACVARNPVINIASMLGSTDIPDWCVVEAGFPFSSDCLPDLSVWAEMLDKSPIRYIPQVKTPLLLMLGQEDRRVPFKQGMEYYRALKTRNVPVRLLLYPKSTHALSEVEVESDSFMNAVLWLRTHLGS

[3] = molecular target: T3, HeLa cell extract proteins (Homo sapiens, UniProt P53621)
T3 construct: endogenous in cells; host or cells: HeLa cell extract
T3 sequence (P53621 1-1224): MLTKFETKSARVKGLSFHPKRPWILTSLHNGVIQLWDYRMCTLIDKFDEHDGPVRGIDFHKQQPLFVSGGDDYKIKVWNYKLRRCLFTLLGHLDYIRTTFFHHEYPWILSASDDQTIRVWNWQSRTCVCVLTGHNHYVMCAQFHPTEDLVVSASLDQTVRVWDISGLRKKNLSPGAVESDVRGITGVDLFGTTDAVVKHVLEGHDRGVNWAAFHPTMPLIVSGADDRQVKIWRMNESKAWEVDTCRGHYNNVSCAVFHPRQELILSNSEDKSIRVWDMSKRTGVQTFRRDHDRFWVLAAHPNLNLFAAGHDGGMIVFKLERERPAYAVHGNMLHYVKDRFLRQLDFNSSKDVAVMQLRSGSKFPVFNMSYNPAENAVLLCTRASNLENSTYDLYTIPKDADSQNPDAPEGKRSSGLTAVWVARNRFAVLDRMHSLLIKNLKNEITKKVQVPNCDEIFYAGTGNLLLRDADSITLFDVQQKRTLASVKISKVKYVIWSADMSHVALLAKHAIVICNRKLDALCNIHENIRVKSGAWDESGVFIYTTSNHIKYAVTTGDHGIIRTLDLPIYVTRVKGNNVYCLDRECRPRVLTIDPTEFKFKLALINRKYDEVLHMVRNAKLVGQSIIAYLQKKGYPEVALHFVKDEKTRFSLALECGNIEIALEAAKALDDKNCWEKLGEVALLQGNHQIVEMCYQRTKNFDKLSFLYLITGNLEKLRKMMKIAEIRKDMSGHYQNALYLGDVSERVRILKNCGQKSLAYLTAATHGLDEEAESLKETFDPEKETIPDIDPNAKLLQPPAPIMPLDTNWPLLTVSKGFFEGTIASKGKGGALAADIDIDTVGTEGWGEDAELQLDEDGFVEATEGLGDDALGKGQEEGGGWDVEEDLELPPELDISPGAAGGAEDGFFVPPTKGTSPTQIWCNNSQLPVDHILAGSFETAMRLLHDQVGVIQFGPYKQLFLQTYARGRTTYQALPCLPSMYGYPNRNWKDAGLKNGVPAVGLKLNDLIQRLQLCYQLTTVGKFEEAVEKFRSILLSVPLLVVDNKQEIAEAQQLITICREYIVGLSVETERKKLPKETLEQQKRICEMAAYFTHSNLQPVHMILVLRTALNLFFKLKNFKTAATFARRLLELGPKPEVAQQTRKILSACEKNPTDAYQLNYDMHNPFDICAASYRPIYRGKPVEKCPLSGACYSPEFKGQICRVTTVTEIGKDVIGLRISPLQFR

[4] = molecular target: T4, HeLa cell extract proteins (Homo sapiens, UniProt P63167)
T4 construct: endogenous in cells; host or cells: HeLa cell extract

[5] = molecular target: T5, HeLa cell extract proteins (Homo sapiens, UniProt Q01628)
T5 construct: endogenous in cells; host or cells: HeLa cell extract

[6] = HeLa, protein APEH (ACYLAMINO-ACID-RELEASING ENZYME)
[7] = HeLa, protein ALDOC (FRUCTOSE-BI[…] C.)

T5 sequence (Q01628 whole entry): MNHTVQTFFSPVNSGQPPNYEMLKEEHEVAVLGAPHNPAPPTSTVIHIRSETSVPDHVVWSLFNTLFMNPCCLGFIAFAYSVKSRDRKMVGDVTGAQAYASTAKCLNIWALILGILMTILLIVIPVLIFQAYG
T4 sequence (P63167 whole entry): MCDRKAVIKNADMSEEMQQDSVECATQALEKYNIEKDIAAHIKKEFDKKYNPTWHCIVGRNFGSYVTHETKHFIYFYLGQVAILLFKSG

| Structure (SMILES) | fold changes relative to vehicle control ([1]; HeLa, protein ALDOC) | fold changes relative to vehicle control [2, 6] | fold changes relative to vehicle control ([3]; protein COPA, HeLa) | fold changes relative to vehicle control ([4]; HeLa, captured protein DYNLL1) | fold changes relative to vehicle control ([5]; HeLa, protein IFITM3) | fold changes relative to vehicle control ([2]; HeLa, protein APEH) | fold changes relative to vehicle control ([4]; protein DYNLL1, HeLa) | fold changes relative to vehicle control ([5]; captured protein IFITM3, HeLa) | other results |
| --- | --- | --- | --- | --- | --- | --- | --- | --- | --- |
| Nc1nc2c(c(=O)[nH]1)N(C=O)C(CNc1ccc(C(=O)N[C@@H](CCC(=O)O)C(=O)O)cc1)CN2 (some centres unmarked) [LEU, leucovorin] | 0.9 | 1.08 | 0.81 | 1.05 | 1.21 | – | – | – | – |
| Nc1nc2[nH]cc(CCc3ccc(C(=O)N[C@@H](CCC(=O)O)C(=O)O)cc3)c2c(=O)[nH]1 [PTX, pemetrexed] | – | – | – | – | – | – | – | – | fold changes relative to vehicle control [1]: 1.04; fold changes relative to vehicle control [2]: 0.96; fold changes relative to vehicle control [3]: 0.82; fold changes relative to vehicle control [4]: 1.06; fold changes relative to vehicle control [5]: 1.32 |
| CCCCCCOc1ccc(Cc2cnc(N)nc2N)cc1 [compound 1] | – | – | 1.07 | – | – | 0.96 | 1.08 | 1.07 | fold changes relative to vehicle control [1, 7]: 1.49 fold |
| CCCCCCOc1cccc(Cc2cnc(N)nc2N)c1 [compound 2] | – | – | 1.31 | – | – | 0.91 | 1.05 | 0.65 | fold changes relative to vehicle control ([1]; HeLa, protein ALDOC (FRUCTOSE-BISPHOSPHATE ALDOLASE C.)): 2.35 fold |
| Nc1nc2cccc(-c3ccccc3)c2n1Cc1ccc(Cl)c(Cl)c1 [compound 3] | – | – | 0.93 | – | – | 1.01 | 0.96 | 0.9 | fold changes relative to vehicle control [1, 7]: 1.23 fold |
| NCCOCCOCC(=O)Nc1nc2ncc(CNc3ccc(C(=O)NC(CCC(=O)O)C(=O)O)cc3)nc2c(=O)[nH]1 (centres unmarked) [compound 6] | 1.06 | 0.91 | 1 | 1.14 | 1.14 | – | – | – | – |
| NCCCNc1ccc(C(=O)NC(CCC(=O)O)C(=O)O)cc1 (centres unmarked) [compound 7] | 1.12 | 1 | 0.89 | 1.18 | 1.3 | – | – | – | – |
